Assay results as given in the NIST ThermoML archive (doi:10.1021/je700033y).
± gives the expanded uncertainty stated by the source.

Details: Liquid, High pressure cell

Compound: CO [methanol]
- vapor or sublimation pressure (353.1 K): 181 ± 3 kPa
- vapor or sublimation pressure (393.1 K): 635 ± 3 kPa
